Assay results: article PMC3274447, “Fermentation, Isolation, Structure, and antidiabetic activity of NFAT-133 produced by Streptomyces strain PM0324667” (AMB Express, 2011)
“And” between values parts separate entries of the source, which are not always exact repeats. Equal entries are not always repeated. Where two headings read alike, the source gives them in different places.

Tests used:
[1] = tested on: L6 rat skeletal muscle cells; assay: Glucose uptake (14C-2-deoxyglucose) in insulin-sensitized differentiated L6 myotubes; format: cell-based; settings: for EC50: Rattus norvegicus, differentiated L6 myotubes in presence of insulin
Method: The metabolite extract library samples were screened for the ability to induce glucose uptake in insulin stimulated differentiated L6 myotubes. The L6 rat skeletal muscle cells were seeded into 96 well cell culture plates in complete medium (α-MEM + 10% fetal bovine serum + 1% penicillin-streptomycin solution) and maintained at 5% carbon dioxide (CO2) atmosphere. After 48 h, the medium was switched to α-MEM with 2% (v/v) fetal bovine serum (FBS) in order to initiate differentiation. Media change was ensured every 48 h. Compound treatment was conducted once the myoblasts differentiated to form myotubes. The differentiated and fused myotubes were starved in serum free α-MEM for 4 h, treated with samples and further incubated for 24 h. Following treatment and incubation, the cells were sensitized with insulin (200 nM) and incubated for 25 minutes. Radioactive glucose pulsing was done at 0.06 μCi/ml for 10 minutes. The reaction was terminated with cold KRPH buffer. The cell-associated radioactivity was determined by lysing the cells with Microscint PS™ followed by liquid scintillation counting ([Huang et al. 2002]). The assay was performed in triplicate.
For all experiments, the L6 myoblasts obtained from ATCC were used only up to passage seven and were utilized within two months post revival of a new vial.

db/db mice = assay: In vivo activity in male db/db mice, 10 days b.i.d.
Method: Male db/db mice (7-9 weeks of age) were housed in individually ventilated cages at room temperature of 22°C ± 2°C, humidity at 55 ± 5%, with a 12:12-h light: dark cycle and throughout the study period had access to water and standard chow ad libitum. The guidelines of the Committee for the Purpose of Control and Supervision of Experiments on Animals, Government of India, were followed and the in-house animal ethics committee approved all experimental procedures.
Male db/db mice were divided into three groups of 10 animals each with similar body weight and plasma glucose (mean ± S.E.M.) levels. […] Body weight was measured daily. On day 10, one hour after the last dose, mice were fasted for four hours so as to minimize the variability between the animals. Blood was collected from the fasted mice, plasma was separated by centrifugation (6000 g at 4°C for 7 minutes) and glucose was estimated using a biochemistry auto analyzer (Hitachi Science Systems Limited, Ibaraki, Japan). A small aliquot of separated plasma was stored at -20°C for estimation of insulin using an ELISA assay kit (Linco Research). Immediately after blood sample collection, mice were sacrificed, livers excised and weighed. The data was reproducible in two independent experiments.
All the results are expressed as Mean ± S.E.M. Statistical analysis was done using GraphPad Prism 4 (version 4.03, GraphPad Software, Inc., CA, USA). For comparison between means of more than two groups one-way analysis of variance (ANOVA) followed by Dunnett's post-hoc analysis was employed.

[2] = tested on: splenocytes derived from Balb/c and C57BL/6 mice; set-up: method as in Burres et al.1995; settings: splenocytes from Balb/c and C57BL/6 mice in vitro; ref Burres et al.1995; cited from earlier work
human PPAR-γ = molecular target: T1, human PPAR-γ (Homo sapiens, UniProt P37231); assay: PPAR-γ luciferase assay in transfected CV1 cells; format: cell-based; settings: for % hPPAR-γ activation: relative to 1 μM rosiglitazone = 100%, n = 3
T1 construct: expressed in transfected cells; host or cells: CV1 cells, transient transfection with lipofectamine
T1 sequence (P37231 1-505): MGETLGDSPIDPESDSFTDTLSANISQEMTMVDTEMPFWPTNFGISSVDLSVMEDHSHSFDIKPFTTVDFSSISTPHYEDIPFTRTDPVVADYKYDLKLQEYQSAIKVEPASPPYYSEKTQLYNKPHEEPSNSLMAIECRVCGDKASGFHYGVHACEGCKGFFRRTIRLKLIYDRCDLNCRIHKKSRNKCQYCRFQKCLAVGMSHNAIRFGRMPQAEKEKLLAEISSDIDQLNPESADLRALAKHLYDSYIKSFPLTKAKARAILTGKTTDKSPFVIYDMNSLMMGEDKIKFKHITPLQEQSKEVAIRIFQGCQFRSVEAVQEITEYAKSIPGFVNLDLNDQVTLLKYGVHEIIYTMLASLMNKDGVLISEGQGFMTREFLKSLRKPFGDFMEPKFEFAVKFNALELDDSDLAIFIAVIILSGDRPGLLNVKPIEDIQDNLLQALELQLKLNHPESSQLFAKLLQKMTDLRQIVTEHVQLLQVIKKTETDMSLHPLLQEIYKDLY
Method: PPAR-γ activation is one of the key mechanisms involved in glucose uptake. […] CV1 cells were seeded onto 24 well plates and transient transfections were conducted after over-night incubation using lipofectamine (Invitrogen, CA, USA). Five hours after transfection, the cells were treated with each compound concentration for an additional 24 h, and the luciferase assay (Promega) was performed according to the manufacture's protocol. Luminescence was measured using the Safire2 reader. […] The entire assay was performed in triplicates.

[3] = tested on: transcription factor - NFAT; set-up: method as in Burres et al.1995; settings: Jurkat T-cells; ref Burres et al.1995; cited from earlier work
[4] = Pharmacokinetic profile in female db/db mice; format: in vivo; settings: for AUC(0-t) / Cmax / Tmax / half-life / AUC(0-inf): mouse, plasma; for AUC(0-inf): read-out: AUC 0-infinity
Description: Similarly, troglitazone a PPAR-γ […] agonist increases glucose uptake by inducing GLUT4 translocation in L6 skeletal muscles ([Lessard et al. 2006]; [Yonemitsu et al. 2001]). However, these compounds are PPAR-γ agonists, and have several side-effects that cause increased body weight and hepaptoxicity on chronic exposure. […] Prior to planning an efficacy study we determined the pharmacokinetic profile of NFAT-133 (Figure 5, Table 4) using female db/db mice with n = 4 per time point. […] But, since the compound appeared to have a novel mechanism of action, we decided to explore its in vivo efficacy potential by attempting the intraperitoneal route of administration. NFAT-133 administered by the intraperitoneal route achieved plasma concentrations higher than the in vitro EC50 in skeletal muscles.
Figure 5 Pharmacokinetic data of NFAT-133 by oral (A) and intraperitoneal (B) absorption in female db/db mice at 30 mg/kg.

[5] = 100 mg/kg i.p. b.i.d. 10 days, P < 0.001 vs. vehicle

SMILES: CN(CCOc1ccc(CC2SC(=O)NC2=O)cc1)c1ccccn1 (stereo not shown) [Rosiglitazone, rosiglitazone, reference compound]
- Inference (glucose uptake activity) ([1]; 4 μg/ml): Active
- EC50 [1]: 6.9 ± 1.8 µM
- liver weight (db/db mice; 5 mg/kg po b.i.d. 10 days): 2.7 ± 0.1 g
- % Change in body weight (db/db mice; 5 mg/kg po b.i.d. 10 days, Mean ± S.E.M., n = 10): 14.6 ± 0.8 %
- % Change in body weight (db/db mice; 5 mg/kg po b.i.d. 10 days, Mean ± S.E.M., n = 10, listed as rosiglitazone): 14.63 ± 0.85%
- liver weight (db/db mice; 5 mg/kg po b.i.d. 10 days, Mean ± S.E.M., n = 10, the values are: liver weight): 2.6 ± 0.1 g

SMILES: CC(=O)C(C)C(O)C(C)c1ccc(C)cc1/C=C\CO (stereo not shown) [NFAT-133]
- proliferation of splenocytes [2]: block proliferation
- EC50 [1]: 6.3 ± 1.8 µM
- % hPPAR-γ activation (human PPAR-γ; 30 μM): 0.2%
- % hPPAR-γ activation (human PPAR-γ; 100 μM): 9.0%
- PPAR-γ activity (human PPAR-γ; concentrations as high as 100 μM): does not induce PPAR-γ activity
- plasma glucose levels as compared to vehicle treated animals (db/db mice; [5]): significant reduction
- plasma insulin levels as compared to vehicle treated animals (db/db mice; [5]): significant reduction
- liver weight (db/db mice; 100 mg/kg ip b.i.d. 10 days): 2.0 ± 0.1 g
- % Change in body weight (db/db mice; 100 mg/kg ip b.i.d. 10 days, Mean ± S.E.M., n = 10): -1.08 ± 1.21% and -1.1 ± 1.2 %
- liver weight (db/db mice; 100 mg/kg ip b.i.d. 10 days, Mean ± S.E.M., n = 10, the values are: liver weight): 2 ± 0.1 g
- activation of the transcription factor NFAT [3]: inhibit the activation
- oral bioavailability [4]: poor oral bioavailability
- AUC(0-t) ([4]; 30 mg/kg IP): 3220 ng·h/mL
- Cmax ([4]; 30 mg/kg IP): 11700 ng/mL and 42.2 µM
- Tmax ([4]; 30 mg/kg IP): 4.8 min
- half-life ([4]; 30 mg/kg IP): 112 min
- AUC(0-inf) ([4]; 30 mg/kg IP): 3550 ng·h/mL
- AUC(0-t) ([4]; 30 mg/kg oral): 630 ng·h/mL
- Cmax ([4]; 30 mg/kg oral): 3410 ng/mL and 12.3 µM
- Tmax ([4]; 30 mg/kg oral): 4.8 min
- half-life ([4]; 30 mg/kg oral): 9.6 min
- AUC(0-inf) ([4]; 30 mg/kg oral): 650 ng·h/mL
